Tests used:
Plasma Bile Acid Levels = experiment: Plasma bile acid levels of ZDF rats after ascending doses of SC-435 and LUM002; assay type: in vivo; conditions: male ZDF rats n=4, end of second week
Method: FIG. 2. Plasma bile acid levels of ZDF rats after administration of ascending doses of SC-435 and LUM002. Male ZDF rats (n=4) were administered vehicle, SC-435 (1, 10 or 30 mg/kg) or LUM002 (0.3, 1, 3, 10 or 30 mg/kg) by oral gavage twice a day for 2 weeks. Plasma bile acid levels were determined at the end of the second week. Data are expressed as mean values ±SEM.
Male ZDF rats (n=4) were administered vehicle, SC-435 (1, 10 or 30 mg/kg) or LUM002 (0.3, 1, 3, 10 or 30 mg/kg) by oral gavage twice a day for 2 weeks. Plasma bile acid levels were determined at the end of the second week. […] Data are expressed as mean values ±SEM.

[1] = tested on: Fecal Bile Acid Excretion and Plasma Bile Acid Concentrations; experiment: ZDF rat study of 264W94: fecal bile acid excretion and plasma bile acid concentrations; assay type: in vivo, Zucker diabetic fatty rats; conditions: male ZDF rats, 2 weeks
Method: Male Zucker diabetic fatty rats (ZDF/GmiCrl-fa/fa) were purchased from Charles River (Raleigh, N.C.) and housed under controlled conditions (12:12 light-dark cycle, 24° C. and 50% relative humidity) with free access to rodent food (Purina 5008, Harlan Teklad, Indianapolis, Ind.). All rats arrived at seven weeks of age (±3 days). After a one-week acclimation period, rats were anesthetized with isoflurane (Abbott Laboratories, IL) and tail-vein blood samples were collected at 9 am without fasting. Blood glucose levels were measured using a glucometer (Bayer, Leverkusen, Germany). In order to ensure balanced treatment groups, ZDF rats were assigned to six treatment groups based upon baseline glucose: vehicle (0.5% HPMC, 0.1% Tween80) and five doses of 264W94 (0.001, 0.01, 0.1, 1, 10 mg/kg). All treatments were given via oral gavage twice a day and animals were followed for two weeks with blood samples collected from tail vein at the end of each week at 9 am without fasting. Fecal samples were collected for 24 hours during the second week of treatment.
Non-esterified fatty acids (NEFA), bile acids, and bile acids in fecal extraction were measured using the Olympus AU640 clinical chemistry analyzer (Beckman Coulter, Irving, Tex.).

[2] = 264W94 0.001-10 mg/kg oral gavage twice a day

`CCCCC1(CCCC)CS(=O)(=O)c2ccc(N(C)C)cc2[C@@H](c2ccc(OCCCC[N+]34CCN(CC3)CC4)cc2)[C@H]1O.CS(=O)(=O)[O-]` [SC-435, 1-[4-[4-[(4R,5R)-3,3-dibutyl-7-(dimethylamino)-2,3,4,5-tetrahydro-4-hydroxy-1,1-dioxido-1-benzothiepin-5-yl]phenoxy]butyl]-4-aza-1-azoniabicyclo[2.2.2]octane methanesulfonate salt, reference compound] was tested, and the “Plasma bile acid levels” value (Plasma Bile Acid Levels; SC-435 1, 10 or 30 mg/kg oral gavage twice a day for 2 weeks) was “decreased for all doses”.
With `CCCC[C@]1(CC)CS(=O)(=O)c2cc(OC)c(OC)cc2[C@@H](c2ccccc2)N1` [Compound 264W94] the “Fecal NEFA” value [1, 2] was “slightly increased”, the “Plasma bile acid concentrations” value [1, 2] was “decreased dose-dependently” and the “Fecal bile acid concentrations elevated compared to vehicle treated rats” value ([1]; 264W94 0.001-10 mg/kg oral gavage twice a day, 24 h feces in second week) was “up to 6.5 fold”. For the same molecule, the “Bile acids in the feces” value ([1]; oral administration of 264W94 0.001-10 mg/kg twice a day) was “dose-dependently increased” and the “ED50 of fecal bile acid elevation” value ([1]; oral gavage twice a day) was 0.17 mg/kg.
For `CCCC[C@]1(CC)CS(=O)(=O)c2ccc(N(C)C)cc2[C@@H](c2cccc(NC(=O)N[C@@H]3O[C@H](COS(=O)(=O)[O-])[C@@H](O)[C@H](OCc4ccccc4)[C@H]3O)c2)[C@H]1O.[K+]` [LUM002], the “Plasma bile acid levels” value (Plasma Bile Acid Levels; LUM002 0.3, 1, 3, 10 or 30 mg/kg oral gavage twice a day for 2 weeks) was “decreased for all doses”.
